From patent publication US5064827A, “Polyhydroxybenzyloxpropanolamines” (Du Pont Merck Pharmaceutical Company, priority 1990, dated 1991)

Experiments:
[1] = target: T1, β-receptor (guinea pig right atria) (Cavia porcellus, UniProt H0W3H1); test: Beta-blocking activity in vitro, guinea pig right atria (antagonism of isoproterenol-induced rate response); type: cell-based; conditions: 60-minute incubation, 37° C, Furchgott method; for Kb: read-out: pA2 Atria (converted)
T1 construct: from tissue; host or cells: guinea pig right atria
Experimental: Several of the compounds of the present invention were tested for β-blocking activity in vitro using guinea pig right atria and guinea pig tracheal strips mounted in a tissue bath containing oxygenated (95% 02 -5% CO2) Krebs physiological salt solution at 37° C. Each tissue was suspended between a fixed glass rod and a Statham Universal Transducer connected to a Beckman recorder. Atria were allowed to beat spontaneously under a loading tension of approximately 0.5 gm. Intrinsic depressant or stimulant activity was determined for each compound by progressively increasing concentrations in the tissue baths at 60-minute intervals. Tissues were not washed between increments. The maximum concentration showing little or no cardiodepressant activity was chosen for blockade experiments. Changes in rate in response to isoproterenol, a standard β-receptor agonist, were measured in the absence and presence of test compounds. Spiral strips of guinea pig trachea were suspended under 5 gm resting tension and incubated with phentolamine, tropolone and cocaine. Active tension was generated by addition of carbachol (3.0×10^-7 M) and decreases in tension in response to isoproterenol were quantitated. Cumulative concentration-response curves were produced with isoproterenol both before and after 60-minute incubation of test compounds with atria and trachea. Compounds with β-blocking activity shifted concentration-response curves to the right. The blocking potency of test compounds was estimated by computing pA2 values (--log K8) by the method of Furchgott, the Pharmacological Differentiation of Adrenergic Receptors, Ann. N.Y. Acad. Sci., 139:553-570 (1967). […] The degree of cardioselectivity was estimated from the ratio, Kβ trachea/Kβ atria (10^(pA 2^atria-pA 2^trachea)). A ratio greater than one indicates cardioselectivity. Test drugs were dissolved in distilled water and added to the bath (30 mL) in a volume of 10 or 100 μL. All of the test compounds are active β-blockers.

[2] = test system: β-receptor (heart rate response to isoproterenol); test: Duration and potency of beta-blocking action in vivo (3-hour infusion, isoproterenol challenge, pentobarbital-anesthetized dogs); parameters: species or system dog
Experimental: The duration of β-blockage was determined in vivo using pentobarbital-anesthetized dogs instrumented for measurement of heart rate using a Beckman cardiotachometer triggered electronically by a phasic aortic blood pressure signal. Both vagus nerves were severed in the cervical region and the animals were mechanically ventilated. The experimental design used employed a 3-hour infusion of test compound. Bolus doses of isoproterenol (0.5 μg/kg) were used to assess the degree of β-blockage and recovery from β-blockage after […] of the infusion. The doses were spaced at 10-minute intervals and were given before, during and following the infusion of test compounds. The infusion rate was adjusted so that at the end of the 3-hour infusion period the degree of isoproterenol inhibition averaged about 50% of control. Following termination of blocker infusion, percent recovery from β-blockade was computed and the time associated with 80% recovery estimated.

T1 sequence (H0W3H1 1-470): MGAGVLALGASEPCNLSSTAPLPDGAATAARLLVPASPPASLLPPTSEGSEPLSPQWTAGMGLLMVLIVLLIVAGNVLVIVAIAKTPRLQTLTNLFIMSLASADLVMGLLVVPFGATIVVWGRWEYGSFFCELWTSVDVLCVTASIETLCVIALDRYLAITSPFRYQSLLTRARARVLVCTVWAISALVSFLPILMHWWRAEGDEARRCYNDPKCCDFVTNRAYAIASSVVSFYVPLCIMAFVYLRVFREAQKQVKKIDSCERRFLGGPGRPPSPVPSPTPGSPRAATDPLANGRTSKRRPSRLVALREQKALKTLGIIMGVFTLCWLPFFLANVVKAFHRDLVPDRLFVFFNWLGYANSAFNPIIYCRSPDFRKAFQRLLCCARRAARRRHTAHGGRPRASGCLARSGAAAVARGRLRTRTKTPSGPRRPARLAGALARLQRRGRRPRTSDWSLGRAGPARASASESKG

| SMILES | pA2 Atria [1] | Kb [1] [nM] | other results |
| --- | --- | --- | --- |
| CC(C)(C)NCC(O)COCc1ccc(O)c(O)c1 (stereo not drawn) [Compound 4a] | 6.5 |  | In Vivo Potency ([2]; anesthetized dogs, infusion rate adjusted to about 50% isoproterenol inhibition at end of 3-hour infusion): 112 mcg/k/m; In Vivo % I ([2]; isoproterenol inhibition (isoproterenol 0.5 μg/kg bolus), dogs, 3-hour infusion at the listed potency rate): 45%; DOA (Time for rec. in min.) 50% ([2]; time to 50% recovery from β-blockade after termination of 3-hour infusion, dogs): 5 min; DOA (Time for rec. in min.) 80% ([2]; time to 80% recovery from β-blockade after termination of 3-hour infusion, dogs, estimated): 16 min |
| CC(C)(C)NCC(O)COCc1cc(O)c(O)cc1F (stereo not drawn) [Compound 4b] | 7.0 |  |  |
| Cc1cc(O)c(O)cc1COCC(O)CNC(C)(C)C (stereo not drawn) [Compound 4c] | 6.0 |  |  |
| CC(C)(C)NCC(O)COCc1cc(O)cc(O)c1 (stereo not drawn) [Compound 5a] |  | 316 |  |
| CC(C)(C)NCC(O)COCc1cc(O)c(O)c(O)c1 (stereo not drawn) [Compound 5b] |  | 1000 |  |
| CC(C)C(=O)NCC(C)(C)NCC(O)COCc1cc(O)cc(O)c1 (stereo not drawn) [Compound 5c] |  | 79.4 |  |
| CC(C)(CNC(=O)c1ccccc1)NCC(O)COCc1cc(O)cc(O)c1 (stereo not drawn) [Compound 5d] |  | 79.4 |  |
| CC(C)(CNC(=O)C1CCCCC1)NCC(O)COCc1cc(O)cc(O)c1 (stereo not drawn) [Compound 5e] |  | 200 |  |
